Measured values reported in patent publication US20130230470A1, “PET FOOD COMPOSITION” (DSM IP ASSETS B.V., priority 2003, published 2013).

Key:
[1] = tested on: domestic shorthair (DSH) breed cats; test: clean tooth model, 28-day feeding study in cats: gingivitis, plaque and calculus indices; format: in vivo; conditions: treatment diet 2.3 g STAY-C 50/kg cat food, 28 days
Method: (§1) 18 domestic shorthair (DSH) breed cats (mean age 3.83±1.85 years, mean body weight 4.2+1.1 kg) were divided by age and gender into two equal groups (n=9) to be fed for 28 days with a • control diet or • treatment diet (2.3 g STAY-C® 50/kg cat food) As the “clean tooth” model was used, all cats received a dental cleaning consisting of ultrasonic scaling and, where necessary, using an abrasor after […], before the beginning of the study. The animals were then treated with the diets for 28 days. The analysis of the different indices were carried out according known methods.

[2] = tested on: domestic shorthair (DSH) breed cats; test: 28-day feeding study in cats: systemic health, body weight, blood counts, serum biochemistry; format: in vivo; conditions: treatment diet 2.3 g STAY-C 50/kg cat food, 28 days
Method: as §1

Compound: O=C1O[C@H]([C@@H](O)CO)C(O)=C1OP(=O)(O)O.[Na+].[Na+].[Na+] [STAY-C®50, trisodium L-ascorbic acid-2-monophosphate]
- Calculus indices, reduction compared to control group [1]: about 14%
- Plaque indices [1]: reduced significantly
- Gingivitis indices ([1]; control group 28% increase): not increased
- changes in systemic health, body weight, blood counts or serum biochemistry [2]: No changes
